Assay results taken from patent US7812178B2, “Isoquinoline compound and pharmaceutical use thereof” (Mitsubishi Tanabe Pharma Corporation, priority 2002, dated 2010).
One block for each compound: values may come before it.

Assays:
[1] = Determination of stability in physiological saline at room temperature (residual ratio by HPLC); format: physicochemical; settings: for Residual rate (%) under non-shielding 7 days later / Residual rate (%) under shielding 7 days later: day 7; for Residual rate (%) under non-shielding 11 days later / Residual rate (%) under shielding 11 days later: day 11
Experimental: Each compound was dissolved in physiological saline to give solutions having a concentration of 1.0 mg/mL or 10 mg/mL. They were preserved at room temperature, under shielding or non-shielding and the residual ratio at day 7 and day 11 was measured by HPLC. […]
column: Inertsil ODS3V (GL Science Inc.)
Mobile phase: methanol: 0.01 mol/L aqueous ammonium acetate solution detection wavelength: 254 nm

recombinant human PARP = target: T1, recombinant human PARP (Homo sapiens, UniProt P09874); test: PARP enzyme activity inhibitory action (3H-NAD poly ADP-ribosylation, filter assay); format: biochemical; settings: 25° C., 15 min
T1 construct: purchased Trevigen 4667-02X
T1 sequence (P09874 whole entry): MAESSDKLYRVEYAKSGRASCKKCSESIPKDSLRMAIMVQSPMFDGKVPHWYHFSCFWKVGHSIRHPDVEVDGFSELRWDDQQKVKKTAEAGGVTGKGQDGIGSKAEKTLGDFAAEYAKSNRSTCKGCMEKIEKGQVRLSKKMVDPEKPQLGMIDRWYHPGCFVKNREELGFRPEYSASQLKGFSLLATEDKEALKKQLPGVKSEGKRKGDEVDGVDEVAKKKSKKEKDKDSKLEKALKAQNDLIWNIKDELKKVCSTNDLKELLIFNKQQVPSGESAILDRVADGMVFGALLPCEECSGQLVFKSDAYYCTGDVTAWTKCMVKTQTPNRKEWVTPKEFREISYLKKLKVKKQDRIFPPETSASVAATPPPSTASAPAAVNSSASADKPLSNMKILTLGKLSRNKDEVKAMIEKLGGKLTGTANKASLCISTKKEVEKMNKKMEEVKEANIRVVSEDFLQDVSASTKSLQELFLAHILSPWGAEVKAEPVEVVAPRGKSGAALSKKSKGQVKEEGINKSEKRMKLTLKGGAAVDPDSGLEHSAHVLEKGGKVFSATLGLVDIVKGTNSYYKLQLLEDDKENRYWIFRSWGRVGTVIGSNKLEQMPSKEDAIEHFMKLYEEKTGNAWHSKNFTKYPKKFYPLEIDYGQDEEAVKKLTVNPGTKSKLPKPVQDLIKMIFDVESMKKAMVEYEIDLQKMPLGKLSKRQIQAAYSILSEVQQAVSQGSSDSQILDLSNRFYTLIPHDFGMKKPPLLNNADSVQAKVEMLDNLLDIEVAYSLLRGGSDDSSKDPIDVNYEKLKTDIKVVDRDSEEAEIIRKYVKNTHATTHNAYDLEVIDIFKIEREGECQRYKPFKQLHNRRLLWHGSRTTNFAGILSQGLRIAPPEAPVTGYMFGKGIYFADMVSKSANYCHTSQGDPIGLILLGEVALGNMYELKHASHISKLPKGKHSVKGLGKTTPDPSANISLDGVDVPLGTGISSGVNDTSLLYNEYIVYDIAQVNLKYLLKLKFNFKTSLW
Experimental: After incubation at 25° C. for 15 min., the reaction was stopped with 20% trichloroacetic acid, and the resulting acid insoluble fraction was adsorbed to a GF/B filter. The filter was washed several times with 5% trichloroacetic acid, and the radiation dose on the filter was measured with a liquid scintillation counter.

[2] = 1.0 mg/mL in physiological saline
[3] = 10 mg/mL in physiological saline

SMILES: Cc1cccc2c(=O)[nH]c(CCN3CCC[C@@H]3CO)cc12 [Ex. 36a, (R)-3-[2-(2-hydroxymethylpyrrolidin-1-yl)ethyl]-5-methyl-2H-isoquinolin-1-one]
Residual rate (%) under non-shielding 7 days later [1, 2]: ≈100% | Residual rate (%) under non-shielding 11 days later [1, 2]: ≈100% | Residual rate (%) under shielding 7 days later [1, 2]: ≈100% | Residual rate (%) under shielding 11 days later [1, 2]: ≈100% | Residual rate (%) under non-shielding 7 days later [1, 3]: ≈100% | Residual rate (%) under non-shielding 11 days later [1, 3]: ≈100% | Residual rate (%) under shielding 7 days later [1, 3]: ≈100% | Residual rate (%) under shielding 11 days later [1, 3]: ≈100% | IC50 (recombinant human PARP): 29 nM

SMILES: Cc1cccc2c(=O)[nH]c(C3CCN(CCO)C3)cc12 (single isomer, unassigned; (+)) [Ex. 38a, (+)-3-[1-(2-hydroxylethyl)pyrrolidin-3-yl]-5-methyl-2H-isoquinolin-1-one]
melting point: 137 to 138.6 °C | IC50 (recombinant human PARP): 29 nM

SMILES: Cc1cccc2c(=O)[nH]c(C3CCN(CCO)C3)cc12 (single isomer, unassigned; (-)) [Ex. 37a, (−)-3-[1-(2-hydroxylethyl)pyrrolidin-3-yl]-5-methyl-2H-isoquinolin-1-one]
melting point: 137.3 to 138.6 °C | IC50 (recombinant human PARP): 20 nM

SMILES: Cc1cccc2c(=O)[nH]c(C3CCN(CCO)CC3)cc12 [Ex. 2a, 3-[1-(2-hydroxyethyl)piperidin-4-yl]-5-methyl-2H-isoquinolin-1-one]
Residual rate (%) under non-shielding 7 days later [1, 2]: ≈100% | Residual rate (%) under non-shielding 11 days later [1, 2]: ≈100% | Residual rate (%) under shielding 7 days later [1, 2]: ≈100% | Residual rate (%) under shielding 11 days later [1, 2]: ≈100% | Residual rate (%) under non-shielding 7 days later [1, 3]: ≈100% | Residual rate (%) under non-shielding 11 days later [1, 3]: ≈100% | Residual rate (%) under shielding 7 days later [1, 3]: ≈100% | Residual rate (%) under shielding 11 days later [1, 3]: ≈100% | IC50 (recombinant human PARP): 17 nM

SMILES: Cc1cccc2c(=O)[nH]c(CCN3CC[C@H](O)C3)cc12 [Ex. 34a, (S)-3-[2-(3-hydroxypyrrolidin-1-yl)ethyl]-5-methyl-2H-isoquinolin-1-one]
melting point: 176 to 178 °C | IC50 (recombinant human PARP): 34 nM

SMILES: Cc1cccc2c(=O)[nH]c(CCN3CC[C@@H](O)C3)cc12 [Ex. 1a, (R)-3-[2-(3-hydroxypyrrolidin-1-yl)ethyl]-5-methyl-2H-isoquinolin-1-one]
Residual rate (%) under non-shielding 7 days later [1, 2]: ≈100% | Residual rate (%) under non-shielding 11 days later [1, 2]: ≈100% | Residual rate (%) under shielding 7 days later [1, 2]: ≈100% | Residual rate (%) under shielding 11 days later [1, 2]: ≈100% | Residual rate (%) under non-shielding 7 days later [1, 3]: ≈100% | Residual rate (%) under non-shielding 11 days later [1, 3]: ≈100% | Residual rate (%) under shielding 7 days later [1, 3]: ≈100% | Residual rate (%) under shielding 11 days later [1, 3]: ≈100% | IC50 (recombinant human PARP): 39 nM

SMILES: Cc1cccc2c(=O)[nH]c(CCN3CCC(O)C3)cc12 (stereo not shown) [Ex. 5a, 3-[2-(3-hydroxypyrrolidin-1-yl)ethyl]-5-methyl-2H-isoquinolin-1-one]
IC50 (recombinant human PARP): 50 nM

SMILES: Cc1cccc2c(=O)[nH]c(CCCN3CCC(O)C3)cc12 (stereo not shown) [Ex. 4a, 3-[3-(3-hydroxypyrrolidin-1-yl)propyl]-5-methyl-2H-isoquinolin-1-one]
IC50 (recombinant human PARP): 46 nM

Now from value to compound:

IC50 (recombinant human PARP): 44 nM
SMILES: O=c1[nH]c(C2CCN(CCO)CC2)cc2ccccc12 [Ex. 9a, 3-[1-(2-hydroxyethyl)piperidin-4-yl]-2H-isoquinolin-1-one]

melting point: 197 to 199 °C
SMILES: Cc1cccc2c(=O)[nH]c(C3CCN(CCCO)CC3)cc12 [Example 23a, 5-methyl-3-[1-(3-hydroxypropyl)piperidin-4-yl]-2H-isoquinolin-1-one]

melting point: 184 to 185 °C
SMILES: Cc1cccc2c(=O)[nH]c(CCN3CCCC(O)C3)cc12 (stereo not shown) [Example 32a, 3-[2-(3-hydroxypiperidin-1-yl)ethyl]-5-methyl-2H-isoquinolin-1-one]

IC50 (recombinant human PARP): 35 nM
SMILES: Cc1cccc2c(=O)[nH]c(C3CCN(CCO)C3)cc12 (stereo not shown) [Ex. 28a, 3-[1-(2-hydroxyethyl)pyrrolidin-3-yl]-5-methyl-2H-isoquinolin-1-one]

melting point: 180 to 181 °C
SMILES: Cc1cccc2c(=O)[nH]c(CCN3CCC[C@@H](O)C3)cc12 [Example 35a, (R)-3-[2-(3-hydroxypiperidin-1-yl)ethyl]-5-methyl-2H-isoquinolin-1-one]
